# Experimental data as given in US8951752B2, “N-demethyase genes and uses thereof” (priority 2011, dated 2015).
# Experiments:
# [1] = target: T1, N-demethylase (Ndm: NdmA and NdmB subunits) (Pseudomonas putida, UniProt H9N289+H9N290); assay: Methylxanthine N-demethylase activity assay with purified Ndm plus partially purified Ccr; assay type: biochemical, Pseudomonas putida CBB5; details: for Relative N-demethylase activity: relative to paraxanthine
# T1 construct: lane 3, natural Ndm purified from P. putida CBB5; made in house; host or cells: purified from the natural strain Pseudomonas putida CBB5 (DEAE, Phenyl and Q Sepharose); not recombinant
# T1 sequence (H9N289 1-351): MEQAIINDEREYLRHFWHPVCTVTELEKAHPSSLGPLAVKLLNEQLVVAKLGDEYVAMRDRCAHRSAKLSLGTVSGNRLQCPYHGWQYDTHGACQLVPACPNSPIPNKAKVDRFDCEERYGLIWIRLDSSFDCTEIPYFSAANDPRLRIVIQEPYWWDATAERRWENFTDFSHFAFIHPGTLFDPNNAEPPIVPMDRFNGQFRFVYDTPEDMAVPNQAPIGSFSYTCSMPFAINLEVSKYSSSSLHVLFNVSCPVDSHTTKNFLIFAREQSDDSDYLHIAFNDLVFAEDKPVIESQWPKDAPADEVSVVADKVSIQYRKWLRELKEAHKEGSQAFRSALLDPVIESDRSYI
# T1 sequence (H9N290 1-355): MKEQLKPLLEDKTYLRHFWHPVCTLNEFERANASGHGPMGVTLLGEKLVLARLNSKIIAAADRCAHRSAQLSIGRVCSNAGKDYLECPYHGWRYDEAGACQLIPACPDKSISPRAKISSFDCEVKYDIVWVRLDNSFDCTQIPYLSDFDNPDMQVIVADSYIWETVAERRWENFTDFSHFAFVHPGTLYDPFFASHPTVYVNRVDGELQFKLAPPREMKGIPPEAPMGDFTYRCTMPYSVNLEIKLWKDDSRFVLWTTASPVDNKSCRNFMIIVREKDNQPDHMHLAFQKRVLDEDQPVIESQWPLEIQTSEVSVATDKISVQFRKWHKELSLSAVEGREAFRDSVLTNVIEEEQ
# Experimental: Methylxanthine N-demethylase activity assay contained, in 1-mL total volume, 0.5 mM methylxanthine, 1 mM NADH, 50 μM Fe(NH4)2(SO4)2, and an appropriate amount of Ndm (0.08-7.5 mg protein, depending on purity of the protein) in 50 mM KPi buffer. Approximately 4 U of partially purified Ccr was added to reaction mixture when assaying Ndm in Phenyl Sepharose and Q Sepharose eluant-fractions (Ccr was not added to the enzyme reaction mixture when assaying Ndm activity in DEAE Sepharose eluant-fractions because Ccr co-eluted with Ndm). The reaction mixture was incubated at 30° C. with 300 rpm shaking on an incubating microplate shaker (VWR). Periodically, a small aliquot was sampled from the reaction mixture and mixed with equal volume of acetonitrile for quantifying concentrations of methylxanthines and N-demethylated products by HPLC. One unit of N-demethylase activity was defined as the consumption of one μmole methylxanthine per minute. When Ndm was coupled with the reductase and ferredoxin components of naphthalene dioxygenase of Pseudomonas sp. strain 9816 (Haigler & Gibson, 1990a; Haigler & Gibson, 1990b), 30 and 100 μg of the respective proteins were used. Spinach ferredoxin reductase and ferredoxin were also substituted for Ccr as described by Subramanian et al. (1979).
# Determination of Kinetic Parameters. Apparent kinetic parameters of Ndm were determined by measuring the initial rate of disappearance (vo) of paraxanthine or 7-methylxanthine in 50 mM KPi buffer (pH 7.5) at 30° C. The paraxanthine and 7-methylxanthine concentrations ([S]) used in these experiments were from 20 to 500 μM. Substrates were incubated with Ndm and Ccr under standard conditions for 15 minutes. At 1, 5, 10, and 15 minutes, samples were removed from the reaction mixtures to quantitate substrate concentrations by HPLC. Plots of substrate concentrations against time were used to determine the initial rates of disappearance of substrates which were linear over 15 minutes. The apparent kinetic parameters were determined from Michaelis-Menten plots of Vo against [S] fitted with the equation
# Determination of Oxygen Requirement. Oxygen consumption by Ndm during N-demethylation of paraxanthine was determined in a closed reaction vessel equipped with a Clarke-type oxygen electrode (Digitial Modell 0, Rank Brothers Ltd., Cambridge, England). The electrode was calibrated by using glucose oxidase (Sigma) and glucose for consumption of oxygen. Ndm activity assay was performed at 30° C. in a total volume of 1 ml of air-saturated 50 mM KPi buffer (pH 7.5) with 100 μM paraxanthine, 200 μM NADH, 50 μM Fe(NH4)2(SO4)2, 0.2 mg purified Ndm, and 4 U partially purified Ccr. The reaction was initiated by adding Ndm and partially purified Ccr after equilibration of all other reaction components for 3.3 minutes. After 13 minutes, a 100-μL aliquot was withdrawn from the reaction, immediately mixed with equal volume of acetonitrile to stop the enzyme reaction, and analyzed for N-demethylation product by HPLC. Background oxygen consumption, possibly due to NADH oxidase enzyme activity in the partially purified Ccr, was quantitated in control reactions containing all reaction components except paraxanthine.
# Formaldehyde Determination. […] Twenty μL Nash reagent was added to 50 μl Ndm reaction sample plus 50 μl acetonitrile. This mixture was incubated at 51° C. for 12 minutes.
# [2] = target: T2, NdmB-His6 (Pseudomonas putida, UniProt H9N290); assay: Methylxanthine N-demethylase assay and kinetics, NdmB-His6 with His6-NdmD; assay type: biochemical, Pseudomonas putida CBB5; details: NdmB-His6
# T2 construct: made in house; host or cells: E. coli BL21(DE3)
# T2 sequence (H9N290 1-355): T1 sequence (H9N290 1-355)
# Experimental: Methylxanthine N-demethylase activity assay contained, in 1-ml total volume, 0.5 mM methylxanthine, 1 mM NADH, 50 μM Fe(NH4)2(SO4)2, and an appropriate amount of NdmA-His6 or NdmB-His6 (7.4 μg-2.5 mg protein depending on substrate specificity) in 50 mM KPi buffer (pH 7.5). Approximately 4 U of partially purified reductase, prepared as described previously (Summers et al., 2011) or 59 U of purified His6-NdmD was added to reaction mixture. Catalase from bovine liver (4,000 U) was also added to reactions containing His6-NdmD. The reaction mixture was incubated at 30° C. with 300 rpm shaking on an incubating microplate shaker (VWR, Radnor, Pa.). Periodically, a small aliquot was sampled from the reaction mixture and mixed with equal volume of acetonitrile for quantifying concentrations of methylxanthines and N-demethylated products by HPLC. One unit of N-demethylase activity was defined as the consumption of one […] methylxanthine per minute.
# Apparent kinetic parameters of NdmA-His6 and NdmB-His6 were determined by measuring the initial rate of disappearance (vo) of methylxanthines in 50 mM KPi buffer (pH 7.5) at 30° C. The initial substrate concentrations (ESI) used in these experiments were from 25 to 500 μM. Substrates were incubated with His6-NdmD plus either NdmA-His6 or NdmB-His6 under standard conditions for 15 minutes. At 1, 5, 10, and 15 minutes, samples were removed from the reaction mixtures to quantitate substrate concentrations by HPLC. Plots of substrate concentrations against time were used to determine the initial rates of disappearance of substrates which were linear over 15 minutes. The apparent kinetic parameters were determined from Michaelis-Menten plots of vo against [S] fitted with the equation
smiles,measurement,setting,value
"Cn1cnc2c1c(=O)[nH]c(=O)n2C [Theobromine, 3,7-dimethylxanthine]",Products identified,[1]; same products at 500 and 200 μM substrate,"3- & 7-methylxanthine, and xanthine"
same,Relative N-demethylase activity,[1]; substrate conc. 200 μM,80.2 ± 7.8
same,Relative N-demethylase activity,[1]; substrate conc. 500 μM,59.8 ± 1.9
same,Product,[2],7-methylxanthine
